The subject of data set [1] is MDA-MB-231 (breast cancer). The data set is described as follows: Scratch (wound healing) assay, MDA-MB-231. It is filed as cell-based. Particulars: MDA-MB-231, scratch assay. Here is the method:
(§1) FIG. 3A is a photograph taken from the scratch assay performed on MDA-MB-231 cells. Cells were seeded in 24-well plate and incubated for 4 hours with the indicated peptides in a free-serum media. After 4 hours, a scratch was made with a 200 μl pipette tip. Photographs of a selected area of each scratch were taken at indicated time points. Areas were measured by ImageJ software. FIGS. 3B-3D are graphs representing the analysis of the scratch assay performed as described in […] on cell lines MDA-MB-231, MCF-7 and MCF10A, respectively. All values were normalized to time 0 of each well and presented in percentage.
(§2) MCF-7 and MDA-MB-231 cells were seeded in 24-well plates and grown to full confluency. Subsequently, media with low serum (2% to MCF-7 and 0.1% to MDA-MB-231) containing the peptides were added to the wells for 4 h. Then, a scratch was placed in the middle of the well with a sterile 200 μl pipette tip (Eppendorf). After washing once with PBS, the respective treatments were returned. Wells were photographed at total magnification of 4× with an IX70 Olympus Optical light microscope (Tokyo, Japan). 3 Images for each well were taken every 24 h.
(§3) The in vitro effect of PKCeta uORF2 on cancer cell migration was tested […] by a standard scratch test assay, as described above. […]

The test system of data set [2] is MCF7 (breast cancer). The data set is described as follows: Scratch (wound healing) assay, MCF7. It counts as cell-based. Here is the method: as §1, §2, §3
Data set [3] concerns U251 MG (glioblastoma cell line). The data set is described as follows: PrestoBlue cell viability/proliferation assay, U251 MG. It counts as cell-based. Particulars: compared with uPEP9-26, uPEP18-26 and ηPS. The protocol:
(§4) FIGS. 4A-4D show the ability of the peptide encoded by uORF2 (uPEP21-26) to reduce viability of breast cancer and glioblastoma cells. FIG. 4A: MCF-7 cells were seeded onto 48-well plates. 24 hours later, the cells were incubated for 24 hours with the indicated peptides). Following incubation, the medium with tested peptide was gently aspirated from each well and 25 μL of PrestoBlue reagent was added to each well of the 48-well plate and incubated at 37° C. in 5% CO2 for 15 min, as recommended. The absorbance was detected by ‘Infinite M200 PRO’ reader. FIGS. 4B-4D are the results of experiments identical to that described by FIG. 4A, but performed on cells lines U251 MG (glioblastoma cell line), MDA-MB-231 and MCF10A, respectively.
(§5) MCF-7 and MDA-MB-231 cells were seeded at 2×10^4 cells/well in 48-well plates. After 24 h serum free-media containing the peptides was added to the wells for 4 h. Then, medium with serum was added and the plate was incubated for 24 h at incubator (5% CO2 humidified atmosphere at 37° C.). Following incubation, the medium with tested peptide was gently aspirated from each well and 25 μL of PrestoBlue™ reagent (Thermo #A13261) was added to each well of the 48-well plate and incubated at 37° C. in 5% CO2 for 15 min, as recommended. The absorbance was recorded at 570 nm and detected by ‘Infinite M200 PRO’ reader. […]

For data set [4], the target named is T1, PKCη (Homo sapiens, UniProt P24723).
T1 construct: HA; expressed in transfected cells
Briefly: In vitro kinase assay of PKCη with Myelin Basic Protein as substrate. It counts as biochemical. Particulars: p-MBP, γ-32P radioactive kinase assay; compared to control peptide uPEP9-26 and ηPS; peptides 2 or 10 μM. The protocol:
(§6) FIG. 2A is a schematic view of the peptides derived from PKCη and used in the examples described herein. uPEP1-26 refers to the complete peptide encoded by uORF2; uPEP9-26 and uPEP18-26 refer to control peptides, which lack the PS motif; ηPS refer to a peptide containing the internal PS domain of PKCη. […] The kinase activity of PKCη was measured using Myelin Basic Protein (p-MBP) as a substrate and γ-^32P radioactive kinase assays. All values were normalized to the control sample without a peptide (Cont.). The data shown are the means of three separate experiments, and is also presented as the gel in FIG. 2C. FIG. 2D: Kinase assays were conducted as described in FIG. 2B, using uPEP1-26 at 2 μM concentration are depicted. All values were normalized to the control sample (without peptide). The data shown are the means of three separate experiments.
(§7) Immunoprecipitations were performed by using pre-absorbed mAbs on protein A/G-agarose beads for 1 h at room temperature. Excess Abs was removed by 3 washes in cold phosphate buffered saline (PBS) and Ab-coated beads were incubated with cell lysates overnight at 4° C. Immune complexes were precipitated by centrifugation followed by extensive washing with RIPA buffer without SDS (10 mM Tris-HCl pH 8.0, 100 mM NaCl, 5 mM EGTA, 1% NP-40, 45 mM β-mercaptoethanol, and 50 mM NaF). […] Kinase activity was evaluated with exposing reagents. […]

Data set [5] relates to PKCs from the novel PKC subfamily. The data set is described as follows: In vitro kinase assay on PKC subfamilies. It is filed as biochemical. Particulars: peptide at 2 μM; normalized to control without peptide. The protocol:
as §6, §7

Data set [6] deals with MDA-MB-231. The data set is described as follows: PrestoBlue cell viability/proliferation assay, MDA-MB-231. It is filed as cell-based. To be noted: compared with uPEP9-26, uPEP18-26 and ηPS. The protocol:
as §4, §5

The subject of data set [7] is MCF7. Briefly: PrestoBlue cell viability/proliferation assay, MCF7. Particulars: compared with uPEP9-26, uPEP18-26 and ηPS. It is filed as cell-based. The protocol: as §4, §5
Data set [8] relates to HeLa. Briefly: XTT cell viability assay, HeLa. It is filed as cell-based. Particulars: 5 μM and 10 μM, compared to the other peptides. Here is the method:
(§8) FIGS. 6A-6C show the efficacy of uORF2-encoded peptide mutated at position 10 (uPEP1-26[c/a]) in reducing cell viability on various cell lines. FIG. 6A: MCF-7 cells were seeded in 96 well plate and incubated for 24 hours with the indicated peptides. After 24 hours, the proliferation rate was monitored using XTT kit (Biological Industries, Israel) according to the manufacturer's instructions.
(§9) Cells were seeded on 96-wells plate at a cell density of 20,000 cells/well and were grown for 48 hours. Cells were treated as indicated for 48 hours. A XTT (#20-300-1000, Biological Industries) reaction solution was prepared (containing the XTT and activation solutions) and added (50 μl/well) into cell medium for 2-4 hours at 37° C. The plate was immediately read in an ELISA plate reader at 450-500 nm. Background reading was performed at 630 nm, and the results calculated as the differences between the values.
(§10) A uPEP21-26[10C/A] mutation of the PKCeta uORF2 peptide (SEQ ID NO: 1) was synthesized containing an alanine substitution at Cys-10, herein referred to as SEQ ID No 5. Cell lines MCF-7 (FIG. 6A), MDA-MB-231 (FIG. 6B) and HeLa (FIG. 6C) were treated with uPEP218-26, uPEP21-26, uPEP21-26[10C/A], uPEP21-17 and ηPS at doses of 5 μM and 10 μM in order to determine cell proliferation.
Background: Formazan colour is commonly taken as a measure of viable cells.

For data set [9], the system named is MDA-MB-231. The data set is described as follows: XTT cell viability assay, MDA-MB-231. It is filed as cell-based. To be noted: 5 μM and 10 μM, compared to the other peptides. Here is the method: as §8, §9, §10
Data set [10] has as its system MCF-7. The data set is described as follows: XTT cell viability assay, MCF-7. It counts as cell-based. To be noted: 5 μM and 10 μM, compared to the other peptides. The protocol:
as §8, §9, §10

Data set [11] has as its system 4T1 cells. Briefly: Breast 4T1 mouse model with PKCη knockdown cells. Particulars: 4T1 cells expressing shRNA vs scrambled control, female BALB/c mice. It is filed as in vivo. The protocol:
FIG. 7A: 4T1 cells expressing shPKCη (SEQ ID NO: 33) or scrambled control were injected into mammary fat pad of 8-week-old female BALB/c mice. Tumor diameters were measured every week with vernier calipers. FIG. 7B: The mice were sacrificed after 8 weeks, and number of metastasis formed in the lungs was counted using Bouin's solutions. Error bars represent the mean±s.e.m, statistical analysis indicates for statistical significance in two-tailed, unpaired sample t-test.
Mice were anesthetized with a solution of 10 ml/mg Ketamine and 1.17 ml/mg xylazine, in saline. Anesthesia was injected intraperitoneally (IP) after sterilizing the inoculation area of the mice with 70% ethanol solution. Using a 27-gauge needle, 4T1 control and shPKCη knockdown cells (transfected with SEQ ID NOs 33-35 or scrambled control (obtained from the ATCC) were injected a few millimeters from the nipple, underneath the skin (120,000 cells in 50 μl per mouse).
Each week, mice were tested for tumors and the primary tumors were examined by caliper. After 10 weeks, mice were euthanized and examined for metastases in lung, liver and spleen, and samples were prepared for immuno staining.
To test the in vivo effects of PKCeta on tumor formation, the establishment and growth of breast cancer cells with (4T1 control cells) and without PKCeta (PKCeta knockdown 4T1 cells) was compared.

T1 sequence (P24723 whole entry): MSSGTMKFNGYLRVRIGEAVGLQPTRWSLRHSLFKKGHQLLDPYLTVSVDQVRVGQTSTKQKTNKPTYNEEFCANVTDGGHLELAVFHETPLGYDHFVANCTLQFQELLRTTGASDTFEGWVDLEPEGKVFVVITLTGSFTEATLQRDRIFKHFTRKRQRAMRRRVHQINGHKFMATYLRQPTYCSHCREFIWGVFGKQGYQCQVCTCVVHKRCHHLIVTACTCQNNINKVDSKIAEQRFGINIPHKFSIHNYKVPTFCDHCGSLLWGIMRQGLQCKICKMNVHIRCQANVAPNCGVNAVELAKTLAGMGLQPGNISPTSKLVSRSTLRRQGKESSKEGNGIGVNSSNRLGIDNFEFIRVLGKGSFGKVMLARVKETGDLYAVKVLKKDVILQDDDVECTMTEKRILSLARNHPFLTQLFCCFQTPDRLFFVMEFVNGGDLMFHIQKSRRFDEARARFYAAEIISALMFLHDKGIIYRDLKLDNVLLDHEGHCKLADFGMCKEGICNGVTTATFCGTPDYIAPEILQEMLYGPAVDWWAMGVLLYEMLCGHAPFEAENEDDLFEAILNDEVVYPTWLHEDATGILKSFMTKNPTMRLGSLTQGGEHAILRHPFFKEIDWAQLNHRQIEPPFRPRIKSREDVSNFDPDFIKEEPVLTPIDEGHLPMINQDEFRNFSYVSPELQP

Regarding “uPEP1-26: full-length human PKCeta uORF2 peptide, 26 amino acids; MASRGALRRXLSPGLPRLLHLSRGLA wherein X is C (MASRGALRRCLSPGLPRLLHLSRGLA; listed as Homo sapiens)”, the “inhibition of cell migration” value in data set [1] and in data set [2] was “inhibited migration” each time. The “inhibition of cell proliferation” value in data set [3], in [6] and in [7] was “inhibited cell proliferation the most” each time. For the same molecule, the “inhibition of kinase activity of PKCη” value in [4] was “strongest inhibitor”. Also, the “inhibition of kinase activity of PKCs from the novel PKC subfamily” value in data set [5] is listed as “strongly inhibits”.

For the molecule “uPEP1-26[10C/A]: full-length PKCeta derived uORF peptide with alanine substitution at Cys-10; MASRGALRRXLSPGLPRLLHLSRGLA wherein X is A (MASRGALRRALSPGLPRLLHLSRGLA)”, the “reduction of cell viability” value in data set [8], in data set [9] and in data set [10] was “efficiently reduced cell viability” throughout.

B1: SEQ ID NO: 33: shRNA sequence for targeting PKCη expression (nucleic acid)
chain: GATCCCCGGCCCGTCTTAACTCCGATTGATCTCGATCAATCGGAGTTAAGACGGGTTTTTG
Regarding B1, the “formation of tumor metastases (lungs)” value in [11] is “inhibited the formation of tumor metastases”. In addition, in data set [11] (mammary fat pad), the “tumor volume over time” value is listed as “significant inhibition in tumor size”.

(Values after patent US11753453B2, “Peptide kinase inhibitors and methods of use thereof” (B.G. NEGEV TECHNOLOGIES AND APPLICATIONS LTD., priority 2017, dated 2023).)
